US8026244B2, “Thioxanthine derivatives and their use as inhibitors of MPO” (AstraZeneca AB, priority 2006, dated 2011)
pIC50: −log10 of the molar value.

These compounds were tested against T1, human MPO (Homo sapiens, UniProt P05164) (assay: MPO inhibition screen (TMB oxidation, absorbance), compounds alone or with added tyrosine). Settings: in the presence of tyrosine (final concentration 8 μM); human MPO 2.5 nM; H2O2 100 μM; pH 6.5.
T1 sequence (P05164 49-745): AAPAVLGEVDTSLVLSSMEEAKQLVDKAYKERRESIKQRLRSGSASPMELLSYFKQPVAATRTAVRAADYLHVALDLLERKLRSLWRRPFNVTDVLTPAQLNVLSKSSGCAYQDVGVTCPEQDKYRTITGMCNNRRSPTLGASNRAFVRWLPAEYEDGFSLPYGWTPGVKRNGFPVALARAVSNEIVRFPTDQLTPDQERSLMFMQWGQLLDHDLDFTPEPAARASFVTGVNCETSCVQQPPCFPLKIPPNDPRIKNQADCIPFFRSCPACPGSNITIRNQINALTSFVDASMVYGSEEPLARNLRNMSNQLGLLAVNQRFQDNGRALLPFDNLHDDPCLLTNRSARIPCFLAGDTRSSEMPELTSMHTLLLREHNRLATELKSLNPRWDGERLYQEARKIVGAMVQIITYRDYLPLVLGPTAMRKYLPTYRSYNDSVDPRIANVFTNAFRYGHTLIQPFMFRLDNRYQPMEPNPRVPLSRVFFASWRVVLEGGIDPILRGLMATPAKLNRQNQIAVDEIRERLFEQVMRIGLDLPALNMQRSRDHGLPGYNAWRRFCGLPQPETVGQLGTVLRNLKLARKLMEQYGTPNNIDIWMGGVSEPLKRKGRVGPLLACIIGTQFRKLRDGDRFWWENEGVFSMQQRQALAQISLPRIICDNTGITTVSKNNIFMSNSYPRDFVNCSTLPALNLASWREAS
Format: biochemical
Description: Methods for the determination of MPO inhibitory activity are disclosed in patent application WO 02/090575. The pharmacological activity of compounds according to the invention was tested in the following screen in which the compounds were either tested alone or in the presence of added tyrosine:
Assay buffer: 20 mM sodium/potassium phosphate buffer pH 6.5 containing 10 mM taurine and 100 mM NaCl.
Developing reagent: 2 mM 3,3′,5,5′-tetramethylbenzidine (TMB), 200 μM KI, 200 mM acetate buffer pH 5.4 with 20% DMF.
To 10 μl of diluted compounds in assay buffer, 40 μl of human MPO (final concentration 2.5 nM), with or without 20 μM tyrosine (final concentration, if present, 8 μM), was added and the mixture was incubated for 10 minutes at ambient temperature. Then 50 μl of H2O2 (final concentration 100 μM), or assay buffer alone as a control, were added. After incubation for 10 minutes at ambient temperature, the reaction was stopped by adding 10 μl 0.2 mg/ml of catalase (final concentration 18 μg/ml). The reaction mixture was left for an additional 5 minutes before 100 μl of TMB developing reagent was added. The amount of oxidised 3,3′,5,5′-tetramethylbenzidine formed was then measured after about 5 minutes using absorbance spectroscopy at about […]. IC50 values were then determined using standard procedures.

Row | pIC50 | SMILES
1 | 7.00 | O=c1[nH]c(=S)n(Cc2ccncc2)c2nc[nH]c12 [Example 3, 3-(pyridin-4-ylmethyl)-2-thioxo-1,2,3,7-tetrahydro-6H-purin-6-one]
2 | 5.66 | CC(Cn1c(=S)[nH]c(=O)c2[nH]cnc21)NCc1cccn1C (stereo not drawn) [Example 44, 3-(2-{[(1-methyl-1H-pyrrol-2-yl)methyl]amino}propyl)-2-thioxo-1,2,3,7-tetrahydro-6H-purin-6-one]
3 | 5.00 | CC(c1nc2ccccc2[nH]1)n1c(=S)[nH]c(=O)c2[nH]cnc21 (stereo not drawn) [Example 9, 3-[1-(1H-benzimidazol-2-yl)ethyl]-2-thioxo-1,2,3,7-tetrahydro-6H-purin-6-one]
